Results: PubChem BioAssay AID330 (DTP/NCI, 2004)
Values joined by “and” are separate entries in the source; they are usually repeats but may differ in a detail not shown here. Equal values may be shown once. Inconclusive results and toxic doses are left out.

Test system: P388 leukemia ip, CD2F1 mice, survival T/C
Assay: NCI In Vivo Anticancer Drug Screen. Data for tumor model P388 Leukemia (intraperitoneal) in CD2F1 (CDF1) mice
Settings: endpoint: median survival time, higher = longer survival
In short: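 Mice carrying the transplanted tumor received test compound or vehicle. Survival was recorded in each group, and the value is the treated-group measurement divided by that of the vehicle-treated control group.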

[1] = dose: 400.0 mg/kg/injection, schedule: Q01DX001 (ip), vehicle: Klucel (hydroxypropylcellulose) (HPC)
[2] = dose: 25.0 mg/kg/injection, schedule: Q01DX009 (ip), vehicle: Klucel (hydroxypropylcellulose) (HPC)
[3] = dose: 12.5 mg/kg/injection, schedule: Q01DX009 (ip), vehicle: Klucel (hydroxypropylcellulose) (HPC)
[4] = dose: 100.0 mg/kg/injection, schedule: Q01DX001 (ip), vehicle: Klucel (hydroxypropylcellulose) (HPC)
[5] = dose: 200.0 mg/kg/injection, schedule: Q01DX001 (ip), vehicle: Klucel (hydroxypropylcellulose) (HPC)

Cc1ccc(/C=C2/C/C(=C\c3ccc(C)cc3)C2=O)cc1
T/C (dose: 12.5 mg/kg/injection, schedule: Q04DX003 (ip), vehicle: Klucel (hydroxypropylcellulose) (HPC)): 94 % of control | T/C (dose: 25.0 mg/kg/injection, schedule: Q04DX003 (ip), vehicle: Klucel (hydroxypropylcellulose) (HPC)): 92 % of control | T/C (dose: 50.0 mg/kg/injection, schedule: Q04DX003 (ip), vehicle: Klucel (hydroxypropylcellulose) (HPC)): 87 % of control | T/C (dose: 400.0 mg/kg/injection, schedule: Q04DX003 (ip), vehicle: Klucel (hydroxypropylcellulose) (HPC)): 88 % of control

CCCCCCC[As](C)(=O)O
T/C (dose: 12.5 mg/kg/injection, schedule: Q01DX001 (ip), vehicle: Klucel (hydroxypropylcellulose) (HPC)): 104 % of control | T/C (dose: 25.0 mg/kg/injection, schedule: Q01DX001 (ip), vehicle: Klucel (hydroxypropylcellulose) (HPC)): 111 % of control | T/C [1]: 96 % of control

CC(O)COc1ccccc1P(c1ccccc1)c1ccccc1 (configuration not stated)
T/C (dose: 25.0 mg/kg/injection, schedule: Q01DX005 (ip), vehicle: Klucel (hydroxypropylcellulose) (HPC)): 104 % of control and 95 % of control | T/C (dose: 50.0 mg/kg/injection, schedule: Q01DX005 (ip), vehicle: Klucel (hydroxypropylcellulose) (HPC)): 104 % of control and 109 % of control and 97 % of control | T/C (dose: 100.0 mg/kg/injection, schedule: Q01DX005 (ip), vehicle: Klucel (hydroxypropylcellulose) (HPC)): 101 % of control and 109 % of control and 91 % of control | T/C (dose: 200.0 mg/kg/injection, schedule: Q01DX005 (ip), vehicle: Klucel (hydroxypropylcellulose) (HPC)): 104 % of control and 92 % of control

O=C1[C@@H]2C3C=CC([C@H]4C(=O)N(CO)C(=O)[C@@H]34)[C@@H]2C(=O)N1CO
T/C [2]: 114 % of control | T/C (dose: 200.0 mg/kg/injection, schedule: Q01DX009 (ip), vehicle: Klucel (hydroxypropylcellulose) (HPC)): 152 % of control and 160 % of control

O=C1C2=C(Nc3ccccc3N2)OC1c1ccc(C2OC3=C(Nc4ccccc4N3)C2=O)cc1 (configuration not stated)
T/C (dose: 60.0 mg/kg/injection, schedule: Q01DX005 (ip), vehicle: Klucel (hydroxypropylcellulose) (HPC)): 88 % of control | T/C (dose: 120.0 mg/kg/injection, schedule: Q01DX005 (ip), vehicle: Klucel (hydroxypropylcellulose) (HPC)): 88 % of control | T/C (dose: 240.0 mg/kg/injection, schedule: Q01DX005 (ip), vehicle: Klucel (hydroxypropylcellulose) (HPC)): 87 % of control

O=C(O)C1CCC[N-]C1.O=C(O)C1CCC[N-]C1.[Cl][Pt+2][Cl] (configuration not stated)
T/C (dose: 5.0 mg/kg/injection, schedule: Q01DX009 (ip), vehicle: saline with Tween-80): 100 % of control | T/C (dose: 10.0 mg/kg/injection, schedule: Q01DX009 (ip), vehicle: saline with Tween-80): 104 % of control | T/C (dose: 20.0 mg/kg/injection, schedule: Q01DX009 (ip), vehicle: saline with Tween-80): 109 % of control

CC1CCC[N-]C1.CC1CCC[N-]C1.CC1CCC[N-]C1.CC1CCC[N-]C1.[Cl][Rh][Cl] (configuration not stated)
T/C (dose: 1.5 mg/kg/injection, schedule: Q01DX009 (ip), vehicle: saline): 122 % of control | T/C (dose: 6.0 mg/kg/injection, schedule: Q01DX009 (ip), vehicle: saline): 152 % of control

c1cc2ccc3ccc(C4CO4)c4ccc(c1)c2c34 (configuration not stated)
T/C (dose: 6.25 mg/kg/injection, schedule: Q01DX009 (ip), vehicle: Klucel (hydroxypropylcellulose) (HPC)): 99 % of control | T/C [3]: 103 % of control | T/C [2]: 101 % of control

COc1ccccc1NC(=O)CC(=O)c1ccc([N+](=O)[O-])cc1
T/C (dose: 6.25 mg/kg/injection, schedule: Q04DX003 (ip), vehicle: saline sonified): 100 % of control | T/C (dose: 12.5 mg/kg/injection, schedule: Q04DX003 (ip), vehicle: saline sonified): 100 % of control | T/C (dose: 25.0 mg/kg/injection, schedule: Q04DX003 (ip), vehicle: saline sonified): 100 % of control

C=CCN(CC=C)C(=O)Nc1cccc2c(NC(=O)N(CC=C)CC=C)cccc12
T/C (dose: 60.0 mg/kg/injection, schedule: Q01DX005 (ip), vehicle: saline with Tween-80): 93 % of control | T/C (dose: 120.0 mg/kg/injection, schedule: Q01DX005 (ip), vehicle: saline with Tween-80): 97 % of control | T/C (dose: 240.0 mg/kg/injection, schedule: Q01DX005 (ip), vehicle: saline with Tween-80): 97 % of control

CCCCCCCCC(=O)N(C)OC
T/C (dose: 25.0 mg/kg/injection, schedule: Q01DX009 (ip), vehicle: saline with Tween-80): 110 % of control | T/C (dose: 50.0 mg/kg/injection, schedule: Q01DX009 (ip), vehicle: saline with Tween-80): 110 % of control | T/C (dose: 100.0 mg/kg/injection, schedule: Q01DX009 (ip), vehicle: saline with Tween-80): 105 % of control

C/C=C/CC1(C)N=C1c1ccccc1 (configuration not stated)
T/C [4]: 99 % of control | T/C [5]: 99 % of control | T/C [1]: 102 % of control

CC(=O)Nc1ccn(C)c1[N+](=O)[O-]
T/C [4]: 100 % of control | T/C [5]: 97 % of control | T/C [1]: 102 % of control

Cc1cc2nc(N(C)C)cc(N(C)C)c2cc1C
T/C [3]: 115 % of control | T/C [2]: 109 % of control | T/C (dose: 50.0 mg/kg/injection, schedule: Q01DX009 (ip), vehicle: Klucel (hydroxypropylcellulose) (HPC)): 100 % of control and 105 % of control
